Laboratory results reported in US11639350B2, “Heteroaryldihydropyrimidine derivatives and methods of treating hepatitis B infections” (Janssen Pharmaceutica NV, priority 2018, dated 2023).
Like-named read-outs stand apart in the source and are kept apart here.

Legend:
HBV = HBV inhibitory activity: HBV DNA in the culture medium of HepG2.2.15 cells by q-PCR; type: cell-based
Outline: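 HepG2.2.15 cells in 2% FBS medium, 40,000 per well, treated 6 days with compound (medium refreshed once), eight 3-fold dilutions from 10 μM top. HBV DNA extracted from culture medium and quantified by q-PCR; EC50 averaged over repeats. Cytotoxicity run in parallel at 5,000 cells per well, top 100 μM, giving CC50.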

[1] = Cytotoxicity determination in HepG2.2.15 cells (CCK-8); type: cell-based; conditions: human, 6 days of compound treatment, CCK-8, highest concentration 100 μM
Outline: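 HepG2.2.15 cells seeded at 5,000 cells/well in 2% FBS medium, incubated overnight at 37° C., then treated 6 days with compounds (8 points, 3-fold dilutions, top 100 μM), medium refreshed once midway. CCK-8 added for 2.5 h; A450 read against 630 nm reference; CC50 calculated, averaged over repeats.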

[2] = Hepatitis B virus, HepG2.2.15, 144 h, HepG2.2.15 cells, 6 days of compound treatment, HBV DNA in culture medium by q-PCR, highest concentration 10 μM, read-out: EC50
[3] = HepG2.2.15 cells, 6 days of compound treatment, HBV DNA in culture medium by q-PCR, highest concentration 10 μM, read-out: EC50

Structure (SMILES) | EC50 (HBV; [2]) [nM] | CC50 at 6 days [1] [nM] | EC50 (HBV; Hepatitis B virus, HepG2.2.15, 144 h) [nM] | EC50 (HBV; [3]) [nM]
COC(=O)C1=C(C2CCN(S(=O)(=O)[C@H]3C[C@@H](C(=O)O)C3)C2)NC(c2nccs2)=NC1c1ccc(F)cc1Cl (relative stereo) [Compound 367B, (cis)-3-((3-(6-(2-chloro-4-fluorophenyl)-5-(methoxycarbonyl)-2-(thiazol-2-yl)-3,6-dihydropyrimidin-4-yl)pyrrolidin-1-yl)sulfonyl)cyclobutanecarboxylic Acid] | 800 | > 100000 | – | –
COC(=O)C1=C(C2CCN(S(=O)(=O)CCOCCOCCO)CC2)NC(c2nccs2)=NC1c1ccc(F)cc1Cl (centres unmarked) [Compound 468, Methyl 4-(2-chloro-4-fluorophenyl)-6-(1-((2-(2-(2-hydroxyethoxy)ethoxy)ethyl)sulfonyl)piperidin-4-yl)-2-(thiazol-2-yl)-1,4-dihydropyrimidine-5-carboxylate] | – | 42900 | 9 | –
CCOC(=O)C1=C(C2CCN(S(=O)(=O)C[C@H]3CC[C@H](C(=O)O)CC3)CC2)NC(c2nccs2)=NC1c1ccc(F)c(F)c1Cl (stereo partly drawn) [Compound 424, trans-4-(((4-(6-(2-chloro-3,4-difluorophenyl)-5-(ethoxycarbonyl)-2-(thiazol-2-yl)-3,6-dihydropyrimidin-4-yl)piperidinyl)sulfonyl)methyl)cyclohexane-1-carboxylic Acid] | 7 | 8200 | – | –
COC(=O)C1=C(C2CCN(S(=O)(=O)[C@H]3C[C@@H](CO)C3)CC2)NC(c2nccs2)=NC1c1ccc(F)cc1Cl (relative stereo) [Compound 357B, (cis)-Methyl 4-(2-chloro-4-fluorophenyl)-6-(1-((3-(hydroxymethyl)cyclobutyl)sulfonyl)piperidin-4-yl)-2-(thiazol-2-yl)-1,4-dihydropyrimidine-5-carboxylate] | 36 | 15400 | – | –
COC(=O)C1=C(C2CCN(S(=O)(=O)[C@H]3CC[C@H](CC(=O)O)CC3)CC2)NC(c2nccs2)=NC1c1ccc(F)c(F)c1Cl (relative stereo) [Compound 478A, (trans)-2-(4-((4-(6-(2-Chloro-3,4-difluorophenyl)-5-(methoxycarbonyl)-2-(thiazol-2-yl)-3,6-dihydropyrimidin-4-yl)piperidin-1-yl)sulfonyl)cyclohexyl)acetic Acid] | 21 | 9900 | – | –
COC(=O)C1=C(C23CC(C(C)O)(C2)C3)NC(c2nccs2)=NC1c1ccc(F)cc1Cl (centres unmarked) [Compound 348B, Methyl 4-(2-chloro-4-fluorophenyl)-6-(3-(1-hydroxyethyl)bicyclo[1.1.1]pentan-1-yl)-2-(thiazol-2-yl)-1,4-dihydropyrimidine-5-carboxylate] | 63 | 25000 | – | –
CCOC(=O)C1=C(C2CCN(S(=O)(=O)[C@H]3C[C@H](C(=O)O)C3)CC2)NC(c2nccs2)=NC1c1cccc(F)c1Br (relative stereo) [Compound 339B, (trans)-3-((4-(6-(2-Bromo-3-fluorophenyl)-5-(ethoxycarbonyl)-2-(thiazol-2-yl)-3,6-dihydropyrimidin-4-yl)piperidin-1-yl)sulfonyl)cyclobutanecarboxylic Acid] | 10 | 13400 | – | –
COC(=O)C1=C([C@H]2CC[C@@H](S(=O)(=O)NC(C)C)CC2)NC(c2nccs2)=NC1c1ccc(F)c(F)c1Cl (single isomer, unassigned) [Compound 234B, (cis)-methyl 4-(2-chloro-3,4-difluorophenyl)-6-(4-(N-isopropylsulfamoyl)cyclohexyl)-2-(thiazol-2-yl)-1,4-dihydropyrimidine-5-carboxylate] | 113 | 16300 | – | –
CCOC(=O)C1=C(C2CCN(S(=O)(=O)C3CC(C)(C(=O)O)C3)CC2)NC(c2nccs2)=NC1c1ccc(F)cc1C (stereo not drawn) [Compound 420A, (trans)-3-((4-(5-(Ethoxycarbonyl)-6-(4-fluoro-2-methylphenyl)-2-(thiazol-2-yl)-3,6-dihydropyrimidin-4-yl)piperidin-1-yl)sulfonyl)-1-methylcyclobutanecarboxylic Acid] | 76 | 20800 | – | –
COCCS(=O)(=O)N[C@H]1CC[C@H](C2=C(C(=O)OC)C(c3ccc(F)cc3Cl)N=C(c3nccs3)N2)CC1 (single isomer, unassigned) [Compound 182A, (trans)Methyl 4-(2-chloro-4-fluorophenyl)-6-(4-(2-methoxyethylsulfonamido)cyclohexyl)-2-(thiazol-2-yl)-1,4-dihydropyrimidine-5-carboxylate] | 93 | 33600 | – | –
COC(=O)C1=C(C2CCCN(S(C)(=O)=O)C2)NC(c2nccs2)=NC1c1cccc(F)c1Cl (single isomer, unassigned) [Compound 98A, Methyl 4-(2-chloro-3-fluorophenyl)-6-(1-(methylsulfonyl)piperidin-3-yl)-2-(thiazol-2-yl)-1,4-dihydropyrimidine-5-carboxylate] | 270 | 11400 | – | –
CCOC(=O)C1=C(C2CCN(S(=O)(=O)c3cnn(CCCCCC(=O)O)c3)CC2)NC(c2nccs2)=NC1c1ccc(F)c(F)c1Cl (centres unmarked) [Compound 462, 6-(4-((4-(6-(2-Chloro-3,4-difluorophenyl)-5-(ethoxycarbonyl)-2-(thiazol-2-yl)-3,6-dihydropyrimidin-4-yl)piperidin-1-yl)sulfonyl)-1H-pyrazol-1-yl)hexanoic Acid] | 24 | 6600 | – | –
CCOC(=O)C1=C([C@H]2CC[C@H](C(=O)O)CC2)NC(c2nccs2)=NC1c1ccc(F)cc1Cl (single isomer, unassigned) [Compound 21, trans-4-(6-(2-Chloro-4-fluorophenyl)-5-(ethoxycarbonyl)-2-(thiazol-2-yl)-3,6-dihydropyrimidin-4-yl)cyclohexanecarboxylic Acid] | 31 | 9900 | – | –
COC(=O)C1=C([C@H]2C[C@H](NS(C)(=O)=O)C2)NC(c2nccs2)=NC1c1ccc(F)cc1Cl (single isomer, unassigned) [Compound 206B, (trans)-Methyl 4-(2-chloro-4-fluorophenyl)-6-(3-(methylsulfonamido)cyclobutyl)-2-(thiazol-2-yl)-1,4-dihydropyrimidine-5-carboxylate] | 108 | 26100 | – | –
CCOC(=O)C1=C([C@H]2CC[C@H](C(=O)O)CC2)NC(c2nccs2)=NC1c1cccc(F)c1Cl (single isomer, unassigned) [Compound 23, trans-4-(6-(2-Chloro-3-fluorophenyl)-5-(ethoxycarbonyl)-2-(thiazol-2-yl)-3,6-dihydropyrimidin-4-yl)cyclohexanecarboxylic Acid] | 566 | 47500 | – | –
COC(=O)C1=C(C2CCN(S(=O)(=O)CC(F)(F)F)CC2)NC(c2nccs2)=NC1c1ccc(F)cc1Cl (centres unmarked) [Compound 216, Methyl 4-(2-chloro-4-fluorophenyl)-2-(thiazol-2-yl)-6-(1-((2,2,2-trifluoroethyl)sulfonyl)piperidin-4-yl)-1,4-dihydropyrimidine-5-carboxylate] | 90 | > 100000 | – | –
COC(=O)C1=C(C2CCN(S(=O)(=O)CC(=O)O)C2)NC(c2nccs2)=NC1c1ccc(F)cc1Cl (single isomer, unassigned) [Compound 214A, 2-((−3-(−6-(2-Chloro-4-fluorophenyl)-5-(methoxycarbonyl)-2-(thiazol-2-yl)-3,6-dihydropyrimidin-4-yl)pyrrolidin-1-yl)sulfonyl)acetic Acid] | – | > 100000 | – | 196
CNS(=O)(=O)[C@H]1CC[C@H](C2=C(C(=O)OC)C(c3cccc(F)c3Cl)N=C(c3nccs3)N2)CC1 (single isomer, unassigned) [Compound 259E, (trans)-methyl 4-(2-chloro-3-fluorophenyl)-6-(4-(N-methylsulfamoyl)cyclohexyl)-2-(thiazol-2-yl)-1,4-dihydropyrimidine-5-carboxylate] | 28 | 22700 | – | –
CNS(=O)(=O)[C@H]1CC[C@H](C2=C(C(=O)OC)C(c3ccc(F)c(F)c3Cl)N=C(c3c(F)cc(F)cc3F)N2)CC1 (single isomer, unassigned) [Compound 167A, methyl 4-(2-chloro-3,4-difluorophenyl)-6-((trans)-4-(N-methylsulfamoyl)cyclohexyl)-2-(2,4,6-trifluorophenyl)-1,4-dihydropyrimidine-5-carboxylate] | 34 | 11600 | – | –
CCOC(=O)C1=C([C@@H]2CC[C@H](C(=O)O)OC2)NC(c2nccs2)=NC1c1ccc(F)cc1Cl (single isomer, unassigned) [Compound 265E, (cis)-5-(−6-(2-Chloro-4-fluorophenyl)-5-(ethoxycarbonyl)-2-(thiazol-2-yl)-3,6-dihydropyrimidin-4-yl)tetrahydro-2H-pyran-2-carboxylic Acid] | – | 92300 | – | 978
COC(=O)C1=C(C23CC(NS(=O)(=O)CCO)(C2)C3)NC(c2nccs2)=NC1c1ccc(F)cc1Cl (centres unmarked) [Compound 390B, Methyl 4-(2-chloro-4-fluorophenyl)-6-(3-(2-hydroxyethylsulfonamido)bicyclo[1.1.1]pentan-1-yl)-2-(thiazol-2-yl)-1,4-dihydropyrimidine-5-carboxylate] | 54 | 45300 | – | –
COC(=O)C1=C(C2CCCCO2)NC(c2nccs2)=NC1c1ccc(F)cc1Cl (single isomer, unassigned) [Compound 49C, Methyl 4-(2-chloro-4-fluorophenyl)-6-(tetrahydro-2H-pyran-2-yl)-2-(thiazol-2-yl)-1,4-dihydropyrimidine-5-carboxylate] | 202 | 84600 | – | –
